pIC50: −log10 of the molar value.

The target in this experiment is T1, P2X purinoceptor 7 (Homo sapiens, UniProt Q99572).
T1 sequence (Q99572 whole entry): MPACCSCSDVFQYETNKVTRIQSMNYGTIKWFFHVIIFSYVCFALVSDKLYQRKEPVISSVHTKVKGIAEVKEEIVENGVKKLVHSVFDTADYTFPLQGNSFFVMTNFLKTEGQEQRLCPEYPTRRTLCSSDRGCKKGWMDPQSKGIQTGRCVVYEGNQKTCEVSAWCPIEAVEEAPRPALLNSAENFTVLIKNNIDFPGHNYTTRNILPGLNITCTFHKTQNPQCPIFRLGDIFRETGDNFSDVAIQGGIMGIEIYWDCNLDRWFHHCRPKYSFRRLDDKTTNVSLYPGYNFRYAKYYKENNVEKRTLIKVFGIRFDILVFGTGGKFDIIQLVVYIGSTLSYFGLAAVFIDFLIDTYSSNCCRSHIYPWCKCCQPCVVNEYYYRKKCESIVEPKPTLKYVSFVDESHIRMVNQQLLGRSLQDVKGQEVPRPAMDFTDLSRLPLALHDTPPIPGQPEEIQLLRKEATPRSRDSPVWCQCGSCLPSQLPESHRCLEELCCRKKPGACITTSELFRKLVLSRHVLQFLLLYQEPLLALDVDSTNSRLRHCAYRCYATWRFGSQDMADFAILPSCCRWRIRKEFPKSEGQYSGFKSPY
The experiment in a line: SUPPLEMENTARY: Inhibition of human P2X7 receptor assessed as inhibition of ethidium bromide accumulation. Same assay as CHEMBL1103860.
For `CN1C[C@@H](C(=O)NCc2ccc(Cl)cc2Cl)N(CC(F)F)C1=O`, the negative logarithm of the IC50 (pIC50) was 7.80.
For `Cc1c(CNC(=O)[C@@H]2CN(C)C(=O)N2C)cccc1C(F)(F)F`, the pIC50 is 8.90.
In the case of `Cc1cc(Cl)ccc1CNC(=O)[C@@H]1CN(C)C(=O)N1C` it was 8.10; in that of `CN1C(=O)N(c2ccnc(F)c2)C[C@H]1C(=O)NCc1ccc(Cl)cc1Cl`, 7.50; in that of `CN1C[C@@H](C(=O)NCc2ccc(C#N)cc2Cl)N(C)C1=O`, 7.50.
The figure for `CN1C(=O)N(c2ccnc(F)c2)C[C@H]1C(=O)NCc1ccc(F)c(F)c1Cl` is 7.90; for `CN1C(=O)N(c2ccnc(F)c2)C[C@H]1C(=O)NCc1cccc(C(F)(F)F)c1Cl` it is 7.20; for `CC(C)c1ccnc(N2C[C@@H](C(=O)NCc3ccc(Cl)cc3Cl)N(C)C2=O)n1` it is 6.80.
With `CN1C(=O)N(c2ncccc2F)C[C@H]1C(=O)NCc1ccc(Cl)cc1Cl`, the pIC50 was 8.70.
The figure for `CN1C(=O)N(CC(F)F)C[C@H]1C(=O)NCc1ccc(Cl)cc1Cl` is 8.60; for `CN1C(=O)N(c2ccnn2C)C[C@H]1C(=O)NCc1ccc(Cl)cc1Cl` it is 8.00; for `CN1C(=O)N(c2cccnc2C#N)C[C@H]1C(=O)NCc1ccc(Cl)cc1Cl` it is 7.50.
On to `Cc1ccc(N2C[C@@H](C(=O)NCc3ccc(Cl)cc3Cl)N(C)C2=O)nn1`, for which the negative logarithm of the IC50 (pIC50) was 6.40.
The figure for `CN1C(=O)N(CC(F)(F)F)C[C@H]1C(=O)NCc1ccc(Cl)cc1Cl` is 8.70; for `CN1C(=O)N(CCF)C[C@H]1C(=O)NCc1ccc(Cl)cc1Cl` it is 8.50.
The figure for `CCN1C[C@@H](C(=O)NCc2ccc(Cl)cc2Cl)N(C)C1=O` is 8.50; for `O=C(c1cccc(C(F)(F)F)c1Cl)N1CCn2c(-c3ccccc3)cnc2C1` it is 8.20.
The figure for `CN1C(=O)NC[C@H]1C(=O)NCc1c(F)cc(Cl)cc1Cl` is 7.80; for `CN1C[C@@H](C(=O)NCc2c(F)cc(Cl)cc2Cl)N(C)C1=O` it is 8.30.
For the compound `CN1C[C@@H](C(=O)NCc2c(Cl)cc(Cl)cc2Cl)N(C)C1=O`, the pIC50 was 9.10.
The figure for `CN1C(=O)NC[C@H]1C(=O)NCc1c(Cl)cc(Cl)cc1Cl` is 8.80.
The figure for `CN1C(=O)N(CC2CC2)CC1C(=O)NCc1ccc(Cl)cc1Cl` (configuration not stated) is 8.50; for `CN1C(=O)N(CC2CCC2)CC1C(=O)NCc1ccc(Cl)cc1Cl` (configuration not stated) it is 8.30; for `CC(C)N1CC(C(=O)NCc2ccc(Cl)cc2Cl)N(C)C1=O` (configuration not stated) it is 8.30.
Take `O=C(c1ccc(Cl)cc1Cl)N1CCn2c(-c3ccccc3)cnc2C1`: the pIC50 is 7.70.
The figure for `CN1C(=O)N(C2CCCC2)CC1C(=O)NCc1ccc(Cl)cc1Cl` (configuration not stated) is 8.30; for `O=C(c1cccc(C(F)(F)F)c1Cl)N1CCn2c(Br)nnc2C1` it is 8.10; for `Cc1ccc(N2CCCC2)cc1N1CCN(C(=O)c2cccc(C(F)(F)F)c2Cl)CC1=O` it is 7.10.
As to `Cc1ccc(Br)cc1N1CCN(C(=O)c2cccc(C(F)(F)F)c2Cl)CC1=O`, the pIC50 is 7.40.
In the case of `Cc1ccc(-c2ccc(C)c(N3CCN(C(=O)c4cccc(C(F)(F)F)c4Cl)CC3=O)c2)cn1` it was 7.40; in that of `Cc1c(N2CCCC2)cccc1N1CCN(C(=O)c2cccc(C(F)(F)F)c2Cl)CC1=O`, 8.00.
The figure for `O=C(c1cccc(Cl)c1Cl)N1CCN(c2cc(N3CCOCC3)ccc2Cl)C(=O)C1` is 8.30; for `O=C(c1c(Cl)cc(Cl)cc1Cl)N1CCN(c2cc(N3CCOCC3)ccc2Cl)C(=O)C1` it is 8.00; for `O=C(c1cccc(C(F)(F)F)c1Cl)N1CCN(c2cc(N3CCOCC3)ccc2Cl)C(=O)C1` it is 8.10.
In the case of `O=C(c1cccc(C(F)(F)F)c1Cl)N1CCn2c(nnc2-c2ccccc2)C1` it was 8.50; in that of `O=C(c1cccc(C(F)(F)F)c1Cl)N1CCn2c(nnc2N2CCCC2)C1`, 7.80; in that of `O=C(c1ccccc1Cl)N1CCn2c(-c3ccccc3)cnc2C1`, 7.30.

For the origin of these results see ChEMBL document CHEMBL2218064, “Structure-activity relationship data for chemical series of antagonists of the P2X7 receptor (Supplementary Bioactivity Data for publication CHEMBL1157114)”.
